A short description of data set [1]: Evaluation of hygroscopicity: water content (K.F.) after exposure to humid conditions at 25° C. To be noted: for change in water content under humid conditions (in words): relative humidities of 10%, 75% and 90%, up to one week or longer. Type of data set: physicochemical. The procedure:
The sulphonic acid salts of sibutramine, prepared in Examples 1 to 5, and sibutramine hydrochloride monohydrate were exposed to humid conditions (10%, 75% and 90% RH) at 25° C. for a period of three days or one week. Then, the water content (K.F. water %) of the samples was measured.

Data set [2] in a line: Evaluation of solubility in distilled water and aqueous solutions having various pH values. Type of data set: physicochemical. To be noted: for solubility compared to sibutramine hydrochloride monohydrate (in words): distilled water (DW) and buffer solutions at various pH values.
A short description of data set [3]: Evaluation of stability: stringent 60° C. heat treatment, content by HPLC. Type of data set: physicochemical. Details: content (HPLC) upon 60° C. heat treatment: reference not given here. The procedure:
The sulphonic acid salts of sibutramine, prepared in Examples 1 to 5, and sibutramine hydrochloride monohydrate were exposed to a stringent 60° C. heat treatment.
HPLC was performed under the following conditions.
Wavelength of UV detection: 225 nm
Column: octadecyl silica gel, C18 (4.6×150 mm, 5 μm)
Mobile phase: an aqueous solution of ammonium phosphate monohydride (0.05 M) (adjusted to pH 6 with phosphoric acid): acetonitrile=35:65

Data set [4] can be described thus: Evaluation of light stability: exposure to fluorescence at 25° C., ICH light stability test chamber, content by HPLC. Type of data set: physicochemical. On the set-up: content (HPLC) in light stability test: reference not given here. As for the experimental part:
A light stability test was performed as follows. The sulphonic acid salts of sibutramine, prepared in Examples 1 to 5, and sibutramine hydrochloride monohydrate were exposed to fluorescence at 25° C. using a light stability test chamber suitable for the ICH guideline, for storage periods of 1, 2 and 4 weeks.

Another data set has as its system rat. To be noted: oral; cited from earlier work.
A further data set deals with mouse. To be noted: intravenous; cited from earlier work.

“Also recorded” adds a separate entry of the source. Counter-ions that a name gives are not always drawn.

In general, solubility refers to how much of the substance goes into solution per volume. With `CC(C)CC(N(C)C)C1(c2ccc(Cl)cc2)CCC1` (stereo not shown) [Esylate hemihydrate, sibutramine esylate hemihydrate], the “water content (K.F. water %)” value was determined as 2.37% in data set [1] (10% relative humidity, 25° C., 1 week, hemihydrate); 2.35% in data set [1] (10% relative humidity, 25° C., 3 days, hemihydrate); 2.35% in data set [1] (75% relative humidity, 25° C., 1 week, hemihydrate); 2.29% in data set [1] (75% relative humidity, 25° C., 3 days, hemihydrate); 2.40% in data set [1] (90% relative humidity, 25° C., 1 week, hemihydrate); 2.44% in data set [1] (90% relative humidity, 25° C., 3 days, hemihydrate). Moreover, the “water content (K.F. water %)” value in data set [1] (Initial, hemihydrate) came to 2.37%. In data set [1], the “change in water content under humid conditions (in words)” value is reported as “almost no change in water content”. In addition, the solubility is 84.10 mg/mL in data set [2] (DW (distilled water), hemihydrate); 70.65 mg/mL in data set [2] (pH 1.2, hemihydrate); 26.42 mg/mL in data set [2] (pH 4.0, hemihydrate); 19.53 mg/mL in data set [2] (pH 5.3, hemihydrate); 69.42 mg/mL in data set [2] (pH 6.8, hemihydrate); 27.61 mg/mL in data set [2] (pH 7.4, hemihydrate). The “solubility compared to sibutramine hydrochloride monohydrate (in words)” value in data set [2] (hemihydrate) is on record as “excellent solubility compared to sibutramine hydrochloride monohydrate”. Also, the “solubility relative to sibutramine hydrochloride” value in data set [2] (distilled water and aqueous solutions of pH 1.2, pH 4.0, pH 5.3, pH 6.8 and pH 7.4) is listed as “two times-higher than the solubility of sibutramine hydrochloride”. The “content (HPLC) upon 60° C. heat treatment” value came out at 1.000 in data set [3] (60° C., 1 wk, hemihydrate); 0.999 in data set [3] (60° C., 2 wks, hemihydrate); 0.999 in data set [3] (60° C., 4 wks, hemihydrate). For the same compound, the “content (HPLC) in light stability test” value in data set [4] (fluorescence, 25° C., 1 wk, hemihydrate) amounted to 0.999; in data set [4] (fluorescence, 25° C., 2 wks, hemihydrate), 1.000; in data set [4] (fluorescence, 25° C., 4 wks, hemihydrate) it was 0.999.
Turning to `CC(C)CC(N(C)C)C1(c2ccc(Cl)cc2)CCC1` (stereo not shown) [Tosylate, sibutramine tosylate], the “water content (K.F. water %)” value in data set [1] (10% relative humidity, 25° C., 1 week, listed as Tosyalte) is reported as 0.07%; in data set [1] (10% relative humidity, 25° C., 3 days, listed as Tosyalte), 0.08%; in data set [1] (75% relative humidity, 25° C., 1 week, listed as Tosyalte), 0.08%; in data set [1] (75% relative humidity, 25° C., 3 days, listed as Tosyalte), 0.05%; in data set [1] (90% relative humidity, 25° C., 1 week, listed as Tosyalte), 0.07%; in data set [1] (90% relative humidity, 25° C., 3 days, listed as Tosyalte) it was 0.05%. Moreover, the “water content (K.F. water %)” value in data set [1] (Initial, listed as Tosyalte) was determined as 0.10%. Also, in data set [1], the “change in water content under humid conditions (in words)” value is “almost no change in water content”. The solubility in data set [2] (DW (distilled water)) is 24.32 mg/mL; in data set [2] (pH 1.2), 8.36 mg/mL; in data set [2] (pH 4.0) it was 7.56 mg/mL; in data set [2] (pH 5.3), 5.53 mg/mL; in data set [2] (pH 6.8) it was 21.92 mg/mL; in data set [2] (pH 7.4) it was 7.69 mg/mL. Also, the “solubility compared to sibutramine hydrochloride monohydrate (in words)” value in data set [2] is “slightly low solubility compared to sibutramine hydrochloride monohydrate; also recorded: slightly lower solubility than sibutramine hydrochloride monohydrate”. Moreover, the “content (HPLC) upon 60° C. heat treatment” value amounted to 0.999 in data set [3] (60° C., 1 wk); 1.000 in data set [3] (60° C., 2 wks); 0.999 in data set [3] (60° C., 4 wks); 1.000 in data set [3] (Initial). The “content (HPLC) in light stability test” value in data set [4] (Initial) is 1.000; in data set [4] (fluorescence, 25° C., 1 wk), 1.000; in data set [4] (fluorescence, 25° C., 2 wks), 0.999; in data set [4] (fluorescence, 25° C., 4 wks), 0.999.
As for `O=S(=O)(O)c1ccccc1` [benzenesulfonic acid], the LD50 in the data set with rat was 1,157 mg/kg.
On to `O=S(=O)(O)CCS(=O)(=O)O` [ethane disulfonic acid], for which the LDL0 with mouse was 68 mg/kg.
With `CCS(=O)(=O)O` [ethanesulfonic acid], in the data set on mouse, the LDL0 was 48 mg/kg.
For the compound `Cc1ccc(S(=O)(=O)O)cc1` [p-toluenesulfonic acid], the LD50 in the data set with rat was 2,480 mg/kg.
